Reference: PubChem BioAssay (NCI)
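Grown in 96-well plates, cells were treated for 48 hours with each compound at five concentrations. Insufficient inhibition: endpoint recorded as highest concentration tested. GI50 = concentration required for 50% inhibition of growth. TGI: total growth inhibition.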

Columns and labels:
Test in all cases: NCI anticancer screen, dose series, 48 h
[1] = system: HCT-15 colon
[2] = system: HOP-92 NSCLC
[3] = system: K-562 leukemia
[4] = system: NCI-H460 lung
[5] = system: RXF 393 renal
[6] = system: SF-539 CNS
[7] = system: SNB-19 CNS
[8] = system: TK-10 renal

| SMILES | GI50 [1] [µM] | TGI [1] [µM] | GI50 [2] [µM] | TGI [2] [µM] | GI50 [3] [µM] | TGI [3] [µM] | GI50 [4] [µM] | TGI [4] [µM] | GI50 [5] [µM] | TGI [5] [µM] | GI50 [6] [µM] | TGI [6] [µM] | GI50 [7] [µM] | TGI [7] [µM] | GI50 [8] [µM] | TGI [8] [µM] |
| --- | --- | --- | --- | --- | --- | --- | --- | --- | --- | --- | --- | --- | --- | --- | --- | --- |
| C[C@@H](CO)NC(=O)c1cc(-c2ccc(Cl)cc2)nn(-c2cnn(C)c2)c1=O | 17.2 | > 100 | 16.6 | > 100 | 26.3 | 95 | 30 | > 100 | 7.79 | 45.8 | 16 | 48.3 | 26.4 | > 100 | 3.12 | 47 |
| NC(CSSCC(N)C(=O)O)C(=O)O (stereo not given) | > 100 | > 100 | > 100 | > 100 | > 100 | > 100 | > 100 | > 100 | > 100 | > 100 | > 100 | > 100 | > 100 | > 100 | > 100 | > 100 |
| CC1(C)O[C@@H]2C[C@H]3[C@@H]4C[C@H](F)C5=CC(=O)C=C[C@]5(C)[C@@]4(F)[C@@H](O)C[C@]3(C)[C@]2(C(=O)CO)O1 |  | > 100 |  | > 100 |  | > 100 |  | > 100 |  | > 100 |  | > 100 |  | > 100 |  | > 100 |
| C/C(=N\NC(=S)N1CCCCCC1)c1cccc2cccnc12 |  | > 21.9 |  | > 100 |  | > 100 |  | > 100 |  | > 100 |  | 5.65 |  | > 44.2 |  | > 100 |
| C=Cn1c([N+](=O)[O-])cnc1/C=C/c1ccc(C(=O)OCCN2CCOCC2)cc1 |  | > 100 |  | > 100 |  | > 100 |  | > 100 |  | > 100 |  | > 100 |  | > 100 |  | > 100 |
| COc1ccc(-c2c3c(nc4n[nH]c(-c5ccc(Cl)cc5)c24)-c2ccccc2C(=O)C3=O)cc1 |  |  | 1.18 | 3.17 | 1.58 | > 100 | 1.52 | 3.24 | 1.5 | 3.1 | 1.7 | 3.47 | 1.83 | 3.7 | 1.8 | 3.32 |
| CC1(C)Cc2c(Br)c(Br)c(Br)c(OCC(O)CN3CCN(c4ccccn4)CC3)c2O1 (stereo not given) | 10.9 | 26.5 | 4.87 | 19.8 | 4.1 | 20.3 | 9.43 | 22.9 |  |  | 13.6 | 29.2 | 20.8 | 49.6 | 14.3 | 30.8 |
| COc1c(N2CCN(CN3C(=O)C(=O)c4cc(Cl)ccc43)C(C)C2)c(F)cc2c(=O)c(C(=O)O)cn(C3CC3)c12 (stereo not given) | 31.7 | > 100 |  |  | 14 | > 100 | 30.6 | > 100 | 34.4 | > 100 | > 100 | > 100 | 92.2 | > 100 | 27.1 | > 100 |
| CN(CCCCCl)P(=O)(OCc1ccc([N+](=O)[O-])o1)OCC1OC(n2cnc([N+](=O)[O-])c2N)C(O)C1O (stereo not given) | > 100 | > 100 | > 100 | > 100 | > 100 | > 100 | > 100 | > 100 | > 100 | > 100 | > 100 | > 100 | > 100 | > 100 | > 100 | > 100 |
| Cc1ccc(C2NC(=O)c3ccccc3N2)c(C)c1 (stereo not given) |  | > 77 |  | > 95.7 |  | 8.37 |  | > 100 |  | > 76.2 |  | 5.15 |  | > 40.8 |  | > 100 |
| CN(C)c1ccc(/C=N/S(=O)(=O)c2ccc(-n3c(-c4ccccc4)nc4c(Br)cc(Br)cc4c3=O)cc2)cc1 | 51.1 | > 100 | 22.7 | 71.6 | 31.3 | > 86.5 | 28.5 | > 100 | 50.2 | > 100 | 44.4 | > 91.8 | 51.2 | > 100 | 45.8 | > 100 |
| Cc1nc2cc(Nc3nc(Nc4ccc(F)cc4)nc(N4CCOCC4)n3)ccc2n1Cc1ccccc1 | 2.19 | 5.18 |  |  | 2.94 | 11.7 | 2.26 | 5.02 |  |  | 3.54 | 14.5 | 5.72 | > 100 |  |  |
| CCSC[C@@H]1C[C@](O)(c2ccc(F)cc2)[C@@H](c2ccc(F)cc2)O1 | 17.4 | 33 | 15.2 | 28.6 | 16 | 31.5 | 14.8 | 30.2 | 20.2 | 45.7 | 17 | 31.1 | 16.6 | 31.1 | 19.2 | 34.5 |
| O=C(/C=C(\C(=O)c1cccs1)c1cccs1)c1ccc(C(=O)/C=C(\C(=O)c2cccs2)c2cccs2)cc1 |  | > 100 |  |  |  | > 100 |  | > 100 |  | > 100 |  | > 100 |  | > 100 |  | > 100 |
| CC1SC2(CCCCC2)N(NC(=O)c2[nH]c3ccc(Br)cc3c2-c2ccccc2)C1=O (stereo not given) | > 100 | > 100 | 14.6 | 64.8 | 6.78 | > 100 | 48.2 | > 100 | 13.7 | 69.2 | > 100 | > 100 | 40.8 | > 100 | 26.2 | > 100 |
| O=C1CN(c2cccc(Cl)c2)C(=O)CN1NCNN1CC(=O)N(c2cccc(Cl)c2)CC1=O |  | > 100 |  | > 100 |  |  |  | > 100 |  | > 100 |  | > 100 |  | > 100 |  | > 100 |
| CC(=O)O[C@H]1CC[C@@]2(C)C(=C/C(=N/OCCN3CCCC3)[C@H]3[C@@H]4CC[C@H](OC(C)=O)[C@@]4(C)CC[C@@H]32)C1 | 20.1 | 45 | 16.7 | 96.5 | 27.3 | > 100 | 24.8 | 52.1 |  |  | > 100 | > 100 | 69.1 | > 100 | 90.4 | > 100 |
| Cc1cc(S(=O)(=O)Nc2n[nH]c(N)n2)c(Cl)cc1Cl |  | > 10 |  |  |  | > 10 |  | > 10 |  | > 10 |  | > 10 |  | > 10 |  | > 10 |
